{"source": "patent US20250206732A1", "about": "“COMPOUNDS AND METHODS FOR THE TARGETED DEGRADATION OF KRAS” (Arvinas Operations, Inc., priority 2022, published 2025)", "target": "T1, AsPC-1 HiBiT-KRASG12D (Homo sapiens, UniProt P01116, G12D)", "T1 construct": "insert the HiBiT tag onto the N-terminus of one or more of the endogenous KRAS alleles; endogenous in cells; host or cells: AsPC-1 (ATCC CRL-1682), CRISPR-Cas9 knock-in clone, one tagged allele", "T1 sequence (P01116 1-188 isoform P01116-2 G12D)": "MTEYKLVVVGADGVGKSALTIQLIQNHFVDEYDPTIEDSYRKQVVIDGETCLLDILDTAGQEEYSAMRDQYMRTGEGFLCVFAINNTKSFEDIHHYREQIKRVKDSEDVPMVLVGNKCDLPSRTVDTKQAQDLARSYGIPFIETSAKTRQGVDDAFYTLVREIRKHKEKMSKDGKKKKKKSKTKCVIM", "assay": "HiBiT degradation assay (G12D), AsPC-1 HiBiT-KRASG12D cells", "format": "cell-based", "conditions": "24 hours treatment; for DC50: AsPC-1 HiBiT-KRASG12D cells, HiBiT luminescence; for Dmax: ASPC1, AsPC-1 HiBiT-KRASG12D cells, maximum degradation observed", "procedure,_shortened": "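AsPC-1 cells carried a CRISPR knock-in of an N-terminal HiBiT tag on endogenous KRAS G12D. After 24 h compound treatment at 37 °C (triplicate), viability was read by alamar blue (4 h, fluorescence, normalized to DMSO). HiBiT-KRAS levels were then measured by Nano-Glo HiBiT lytic luminescence after 45 min at room temperature.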", "data": [{"molecule": "CCc1cccc2cc(O)cc(-c3ncc4c(N5CC6CCC(C5)N6)nc(OC[C@@]56CCCN5[C@H](COC(=O)N5CCN(c7cc([C@@H](C(=O)N8C[C@H](O)C[C@H]8C(=O)N[C@@H](C)c8ccc(-c9scnc9C)cc8)C(C)C)on7)[C@H](C)C5)CC6)nc4c3F)c12", "note": "[Compound 341, [(3S,8S)-8-[[4-(3,8-diazabicyclo[3.2.1]octan-3-yl)-7-(8-ethyl-3-hydroxy-1-naphthyl)-8-fluoro-pyrido[4,3-d]pyrimidin-2-yl]oxymethyl]-1,2,3,5,6,7-hexahydropyrrolizin-3-yl]methyl (3R)-4-[5-[(1S)-1-[(2S,4R)-4-hydroxy-2-[[(1S)-1-[4-(4-methylthiazol-5-yl)phenyl]ethyl]carbamoyl]pyrrolidine-1-carbonyl]-isobutyl]isoxazol-3-yl]-3-methyl-piperazine-1-carboxylate]", "values": [{"measurement": "DC50", "result": "> 3", "unit": "µM"}]}, {"molecule": "CCc1cccc2cc(O)cc(-c3ncc4c(N5CC6CCC(C5)N6)nc(OCCN5CCC(F)(CN6CCN(c7cc([C@@H](C(=O)N8C[C@H](O)C[C@H]8C(=O)N[C@@H](C)c8ccc(-c9ccnn9C)cc8)C(C)C)on7)CC6)CC5)nc4c3F)c12", "note": "[Compound 197, (2S,4R)-1-[(2S)-2-(3-{4-[(1-{2-[(4-{3,8-diazabicyclo[3.2.1]octan-3-yl}-7-(8-ethyl-3-hydroxynaphthalen-1-yl)-8-fluoropyrido[4,3-d]pyrimidin-2-yl)oxy]ethyl}-4-fluoropiperidin-4-yl)methyl]piperazin-1-yl}-1,2-oxazol-5-yl)-3-methylbutanoyl]-4-hydroxy-N-[(1S)-1-[4-(1-methyl-1H-pyrazol-5-yl)phenyl]ethyl] pyrrolidine-2-carboxamide]", "values": [{"measurement": "Dmax", "result": "< 20", "unit": "%"}, {"measurement": "DC50", "result": "1 to 3", "unit": "µM"}]}, {"molecule": "C#Cc1c(F)ccc2cc(O)cc(-c3ncc4c(N5CC6CCC(C5)N6)nc(OCCN5CCC(CC6CN(c7cc([C@H](C(=O)N8C[C@H](O)C[C@H]8C(=O)N[C@@H](C)c8ccc(-c9ccnn9C)cc8)C(C)C)on7)C6)CC5)nc4c3F)c12", "note": "[Compound 156, (2S,4R)-1-[(2R)-2-(3-{3-[(1-{2-[(4-{3,8-diazabicyclo[3.2.1]octan-3-yl}-7-(8-ethynyl-7-fluoro-3-hydroxynaphthalen-1-yl)-8-fluoropyrido[4,3-d]pyrimidin-2-yl)oxy]ethyl}piperidin-4-yl)methyl]azetidin-1-yl}-1,2-oxazol-5-yl)-3-methylbutanoyl]-4-hydroxy-N-[(1S)-1-[4-(1-methyl-1H-pyrazol-5-yl)phenyl]ethyl]pyrrolidine-2-carboxamide]", "values": [{"measurement": "Dmax", "result": "80 to 100", "unit": "%"}, {"measurement": "DC50", "result": "< 0.6", "unit": "µM"}]}, {"molecule": "C#Cc1c(F)ccc2cccc(-c3ncc4c(N5CC6CCC(C5)N6)nc(OC[C@@]56CCCN5[C@H](COc5cc([C@H](C(=O)N7C[C@H](O)C[C@H]7C(=O)N[C@@H](C)c7ccc(-c8scnc8C)cc7)C(C)C)on5)CC6)nc4c3F)c12", "note": "[Compound 52, (2S,4R)-1-[(2R)-2-(3-{[(3S,7aS)-7a-{[(4-{3,8-diazabicyclo[3.2.1]octan-3-yl}-7-(8-ethynyl-7-fluoronaphthalen-1-yl)-8-fluoropyrido[4,3-d]pyrimidin-2-yl)oxy]methyl}-hexahydro-1H-pyrrolizin-3-yl]methoxy}-1,2-oxazol-5-yl)-3-methylbutanoyl]-4-hydroxy-N-[(1S)-1-[4-(4-methyl-1,3-thiazol-5-yl)phenyl]ethyl]pyrrolidine-2-carboxamide]", "values": [{"measurement": "Dmax", "result": "80 to 100", "unit": "%"}, {"measurement": "DC50", "result": "< 0.6", "unit": "µM"}]}, {"molecule": "CCc1cccc2cc(O)cc(-c3ncc4c(N5CC6CCC(C5)N6)nc(OC[C@@H]5CC[C@@H](COC(=O)N6CC(Oc7cc([C@@H](C(=O)N8C[C@H](O)C[C@H]8C(=O)N[C@@H](C)c8ccc(-c9scnc9C)cc8)C(C)C)on7)C6)N5C)nc4c3F)c12", "note": "[Compound 291]", "values": [{"measurement": "Dmax", "result": "< 20", "unit": "%"}, {"measurement": "DC50", "result": "< 0.6", "unit": "µM"}]}, {"molecule": "CCc1cccc2cccc(-c3ncc4c(N5CC6CCC(C5)N6)nc(OC[C@]56CCCN5[C@H](COc5cc([C@@H](C(=O)N7C[C@H](O)C[C@H]7C(=O)N[C@@H](C)c7ccc(-c8scnc8C)cc7)C(C)C)on5)CC6)nc4c3F)c12", "note": "[Compound 310, (2S,4R)-1-[(2S)-2-[3-[[(3S,8R)-8-[[4-(3,8-diazabicyclo[3.2.1]octan-3-yl)-7-(8-ethyl-1-naphthyl)-8-fluoro-pyrido[4,3-d]pyrimidin-2-yl]oxymethyl]-1,2,3,5,6,7-hexahydropyrrolizin-3-yl]methoxy]isoxazol-5-yl]-3-methyl-butanoyl]-4-hydroxy-N-[(1S)-1-[4-(4-methylthiazol-5-yl)phenyl]ethyl]pyrrolidine-2-carboxamide]", "values": [{"measurement": "Dmax", "result": "80 to 100", "unit": "%"}, {"measurement": "DC50", "result": "< 0.6", "unit": "µM"}]}, {"molecule": "Cc1ncsc1-c1ccc([C@H](C)NC(=O)[C@@H]2C[C@@H](O)CN2C(=O)[C@@H](c2cc(N3CCN(C(=O)OC[C@H]4CC[C@@]5(COc6nc(N7CC8CCC(C7)N8)c7cc(Cl)c(-c8cc(O)cc9ccccc89)c(F)c7n6)CCCN45)CC3)no2)C(C)C)cc1", "note": "(single isomer, unassigned) [Compound 329]", "values": [{"measurement": "Dmax", "result": "80 to 100", "unit": "%"}, {"measurement": "DC50", "result": "< 0.6", "unit": "µM"}]}, {"molecule": "C#Cc1c(F)ccc2cc(O)cc(-c3ncc4c(N5CC6CCC(C5)N6)nc(OC[C@]56CCCN5[C@H](COc5cc([C@H](C(=O)N7C[C@H](O)C[C@H]7C(=O)N[C@@H](C)c7ccc(-c8scnc8C)cc7)C(C)C)on5)CC6)nc4c3F)c12", "note": "[Compound 311, (2S,4R)-1-[(2R)-2-[3-[[(3S,8R)-8-[[4-(3,8-diazabicyclo[3.2.1]octan-3-yl)-7-(8-ethynyl-7-fluoro-3-hydroxy-1-naphthyl)-8-fluoro-pyrido[4,3-d]pyrimidin-2-yl]oxymethyl]-1,2,3,5,6,7-hexahydropyrrolizin-3-yl]methoxy]isoxazol-5-yl]-3-methyl-butanoyl]-4-hydroxy-N-[(1S)-1-[4-(4-methylthiazol-5-yl)phenyl]ethyl]pyrrolidine-2-carboxamide]", "values": [{"measurement": "Dmax", "result": "80 to 100", "unit": "%"}, {"measurement": "DC50", "result": "< 0.6", "unit": "µM"}]}, {"molecule": "CCc1cccc2cncc(-c3ncc4c(N5CC6CCC(C5)N6)nc(OCCN5CCC(COc6cc([C@H](C(=O)N7C[C@H](O)C[C@H]7C(=O)N[C@@H](C)c7ccc(-c8scnc8C)cc7)C(C)C)on6)CC5)nc4c3F)c12", "note": "[Compound 304]", "values": [{"measurement": "DC50", "result": "> 3", "unit": "µM"}]}, {"molecule": "CCc1cccc2cc(O)cc(-c3ncc4c(N5CC6CCC(C5)N6)nc(OCCN5CCC(F)(CN6CCN(c7cc([C@@H](C(=O)N8C[C@H](O)C[C@H]8C(=O)N[C@@H](C)c8ccc(-c9scnc9C)cc8)C(C)C)on7)[C@H](C)C6)CC5)nc4c3F)c12", "note": "[Compound 224, (2S,4R)-1-[(2S)-2-{3-[(2R)-4-[(1-{2-[(4-{3,8-diazabicyclo[3.2.1]octan-3-yl}-7-(8-ethyl-3-hydroxynaphthalen-1-yl)-8-fluoropyrido[4,3-d]pyrimidin-2-yl)oxy]ethyl}-4-fluoropiperidin-4-yl)methyl]-2-methylpiperazin-1-yl]-1,2-oxazol-5-yl}-3-methylbutanoyl]-4-hydroxy-N-[(1S)-1-[4-(4-methyl-1,3-thiazol-5-yl)phenyl]ethyl]pyrrolidine-2-carboxamide]", "values": [{"measurement": "Dmax", "result": "20 to 60", "unit": "%"}, {"measurement": "DC50", "result": "0.6 to 1", "unit": "µM"}]}]}
